Tests used:
[1] = system: neuroblastoma-spinal cord hybrid NSC-34 cells; test: Neuroprotective effect/cell viability analysis in NSC-34 cells against H2O2 induced oxidative stress; type: cell-based; conditions: 250 μM H2O2
Procedure: Methods: The in vitro properties and antioxidant abilities of the synthesized B^5-EDR analogues were assessed in cell-based assays. […] The methodology employed for each of these assays is detailed below.
(iii) Methodology for neuroprotective effect/cell viability analysis in (NSC-34) cells (FIGS. 8A-B): Briefly, NSC-34 cells with about 20 k cells per well in 96 well plates were cultured in a complete medium consisting of high glucose Dulbecco's modified eagle medium (DMEM) (Thermo Fisher Scientific) supplemented with about 10% US-origin fetal bovine serum (Thermo Fisher Scientific), GlutaMAX-1, about 200 mM (100×) (Thermo Fisher Scientific), about 1% 100 mM Sodium pyruvate and about 1% 10,000 U/mL penicillin-streptomycin solution (Thermo Fisher Scientific) for about 20 h to reach confluency of about 70%—about 75%. All the cells were cultured in an incubator with about 5% of CO2 at about 37° C. About 20 kcells/100 μl/well were seeded in 96 well plates for about 20 h in triplicates. […] After about 1 h, the cells were treated with 250 μM of H2O2 for about 2 h. After a total period of about 3 h, about 10 μl of WST-8 reagent was added in each well and the absorbance readings were recorded after about 2.5 h at about 450 nm. All the experiments were repeated at least three times and measurements were run in triplicates.

[2] = system: WG37R mice; test: 120-day chronic toxicity assessment in WG37R mice; type: in vivo; conditions: 10 mg/kg/day IP daily for 120 days
Procedure: The WG37R mice were randomly assigned to 2 groups: For the second set of the experiment, a total of 6 animals per group (3 male and 3 female) were used in the study. Group 3: Sham treatment 1 (1:20 DMSO/PBS) and Group 4: NS-1-2 (10 mg/kg body weight). According to requirement of acute toxicity study, 6-10 animals should be used to evaluate the effect of a substance. However, as the new analogues are structurally similar to Edaravone, having a single-dose safety profile of 450 mg/kg, the mortality of the Edaravone analogues at a dose of 10 mg/kg body weight/day was not expected. Considering the above facts, for the present acute study, the proposed minimum number of animals was 6 per group. Morphological alterations, histological changes, and mean body weight assessments for whole set of animals, for both the WG37R control groups (N=5; 1:20, DMSO:PBS) and WG37R treated groups (N=6; NS-1-2; 10 mg/kg bodyweight) were assessed during the 120-day chronic toxicity assessment, by giving daily of 120 IP injection to the mouse at 3 months of age. Only one male mice from group 3 (control) was terminated unexpectedly, and was likely due to an accidental error in injection (discussed with Central Animal Care Services, veterinarians and staff). IP injections may be difficult because of the aggressiveness of mice (particularly the male mice, during physical restraint). […]

[3] = system: neuroblastoma-spinal cord hybrid NSC-34 cells; test: Neuroprotective effect/cell viability analysis in NSC-34 cells against H2O2 induced oxidative stress; type: cell-based; conditions: prophylactic treatment, 250 μM H2O2, FIG. 7A

## Cc1cc(B2OC(C)(C)C(C)(C)O2)n(-c2ccccc2)n1 [NS-1-2, 3-methyl-5-(4,4,5,5-tetramethyl-1,3,2-dioxaborolan-2-yl)-1-phenyl1H-pyrazole]
[1]; 1 μM
  neuroprotection in scavenging neurotoxic effects of H2O2 compared to EDR: better neuroprotection
[1]; 25 μM
  neuroprotection in scavenging neurotoxic effects of H2O2 compared to EDR: better neuroprotection
[1]; 50 μM dose
  viability compared to EDR: almost equal viability
[2]
  clinical signs of toxicity compared to vehicle-treated mice: no clinical signs of toxicity
  tolerability: seemingly tolerated
[3]
  protection from loss of cell viability induced by H2O2: protected NSC-34 cells from loss of cell viability

From US20260232706A1, “1H-PYRAZOLE ANALOGUES AND METHODS AND USES THEREOF” (University of Manitoba, priority 2022, published 2026)
